This is an account of results in patent publication US20250313563A1, “GLYCOGEN SYNTHASE KINASE 3 INHIBITORS AND USES THEREOF” (The Broad Institute, Inc., priority 2022, published 2025).

Test [1] addresses GSK3b (GST-full length GSK3b) (Homo sapiens (Human), UniProt P49841). The test is described as follows: GSK3b TR-FRET kinase assay. Type of test: biochemical. The essentials: (§1)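 1 nM GST-GSK3α/β + cpd, 30 min preinc; add 200 nM biotin-pS645 GS(631-650) peptide + ATP (α 4 μM / β 2 μM, or 1 mM); 100 min RT, 50 mM Tris pH 7.5, 20 mM MgCl2, 1% DMSO; EDTA stop; SA-d2/Tb-pSer641 Ab 60 min; 665/615 ratio → IC50.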
Background: In TR-FRET formats the signal depends on donor and acceptor labels being close together.

In test [2] the target is GSK3α (GST-full length GSK3α) (Homo sapiens (Human), UniProt P49840). Nature of the test: GSK3α TR-FRET kinase assay. Type of test: biochemical. The essentials: as §1
GSK3α (GST-full length GSK3α), sequence (P49840 whole entry): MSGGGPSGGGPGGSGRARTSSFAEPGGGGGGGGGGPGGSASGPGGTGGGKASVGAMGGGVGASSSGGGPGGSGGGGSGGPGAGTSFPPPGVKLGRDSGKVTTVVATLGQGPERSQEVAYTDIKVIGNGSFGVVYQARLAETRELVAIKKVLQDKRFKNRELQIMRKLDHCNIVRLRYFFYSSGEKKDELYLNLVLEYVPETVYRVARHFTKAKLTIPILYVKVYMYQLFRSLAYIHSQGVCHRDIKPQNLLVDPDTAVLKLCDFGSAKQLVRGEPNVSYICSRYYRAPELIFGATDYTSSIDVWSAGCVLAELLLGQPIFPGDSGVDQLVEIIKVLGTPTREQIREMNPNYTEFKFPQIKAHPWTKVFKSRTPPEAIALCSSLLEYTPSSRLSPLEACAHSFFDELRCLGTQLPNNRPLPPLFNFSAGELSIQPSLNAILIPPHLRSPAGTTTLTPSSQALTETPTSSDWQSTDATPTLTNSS
Setting [3] is: 1 nM GSK3b, 2 μM ATP, 30 minute preincubation, Table 16, read-out: GSK3-B TR-FRET BIOCHEMICAL (TR-FRET).
Setting [4] is: 1 nM GSK3α, 4 μM ATP, 30 minute preincubation, Table 16, read-out: GSK3-A TR-FRET BIOCHEMICAL (TR-FRET).
The mark [5] stands for this setting: 1 nM GSK3b, 2 μM ATP, 30 minute preincubation, geometric mean, read-out: GSK3-B TR-FRET BIOCHEMICAL (TR-FRET), GMean, IC50.
[6] abbreviates: 1 nM GSK3α, 4 μM ATP, 30 minute preincubation, geometric mean, read-out: GSK3-A TR-FRET BIOCHEMICAL (TR-FRET), GMean, IC50.
Setting [7] is: 1 nM GSK3b, 2 μM ATP, 30 minute preincubation, Table 16, read-out: GSK3-B TR-FRET BIOCHEMICAL (TR-FRET), IC50.
Where [8] appears, read: 1 nM GSK3α, 4 μM ATP, 30 minute preincubation, Table 16, read-out: GSK3-A TR-FRET BIOCHEMICAL (TR-FRET), IC50.
Setting [9] is: read-out: GSK3-B (TR-FRET 1 mM ATP), GMean, IC50, 1 mM ATP, geometric mean.
Setting [10] is: read-out: GSK3-A (TR-FRET 1 mM ATP), GMean, IC50, 1 mM ATP, geometric mean.
Setting [11] is: 1 nM GSK3b, 2 μM ATP, 30 minute preincubation, read-out: GSK3-B TR-FRET BIOCHEMICAL (TR-FRET), IC50.
[12] abbreviates: 1 nM GSK3α, 4 μM ATP, 30 minute preincubation, read-out: GSK3-A TR-FRET BIOCHEMICAL (TR-FRET), IC50.

Like-named read-outs stand apart in the source and are kept apart here.

GSK3b (GST-full length GSK3b), sequence (P49841 whole entry): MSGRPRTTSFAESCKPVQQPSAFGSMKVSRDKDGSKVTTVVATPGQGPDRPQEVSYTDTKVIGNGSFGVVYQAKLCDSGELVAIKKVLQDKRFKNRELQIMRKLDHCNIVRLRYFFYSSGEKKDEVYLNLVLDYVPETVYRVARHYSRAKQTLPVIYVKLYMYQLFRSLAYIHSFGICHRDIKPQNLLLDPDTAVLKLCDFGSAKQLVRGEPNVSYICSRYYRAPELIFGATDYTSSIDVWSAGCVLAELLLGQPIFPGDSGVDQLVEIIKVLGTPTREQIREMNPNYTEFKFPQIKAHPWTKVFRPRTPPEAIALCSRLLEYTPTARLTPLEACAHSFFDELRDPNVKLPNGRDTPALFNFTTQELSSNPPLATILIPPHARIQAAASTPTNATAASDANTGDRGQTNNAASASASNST

As to `COc1ccc(S(=O)(=O)N2CCCC3(CC2)C2=C(CC(C)(C)CC2=O)Nc2n[nH]cc23)cc1` (stereo not shown) [Compound 917141], the IC50 in test [1] (setting [3]) is 100 to 1000 nM; in test [2] (setting [4]), at most 100 nM.
As for `CC[C@@]1(c2cccc(-c3ccnc(C)c3)c2)C2=C(C[C@@]3(CCCOC3)NC2=O)Nc2n[nH]cc21` [Compound 948146], the values for the IC50 in test [1] (setting [5]) and in test [2] (setting [6]) were above 5000 nM and 1000 to 5000 nM, respectively.
As to `Cc1cccc2c1CC[C@]21C2=C(CC(C)(C)CC2=O)Nc2n[nH]cc21` [Compound 913136], the IC50 in test [1] (setting [7]) is 100 to 1000 nM; in test [2] (setting [8]) it was at most 100 nM.
With `COc1ccc(S(=O)(=O)N2CCC3(CC2)C2=C(CC(C)(C)CC2=O)Nc2n[nH]cc23)cn1` [Compound 945666], the IC50 in test [1] (setting [3]) and in test [2] (setting [4]) was at most 100 nM each time.
Turning to `CN1CCC2(CC1)C1=C(CC(C)(C)CC1=O)Nc1n[nH]cc12` [Compound 826714], the IC50 in test [1] (setting [7]) and in test [2] (setting [8]) was above 5000 nM each time.
With `CC[C@]1(c2cccc(-c3c(F)cncc3OC)c2)C2=C(CC(C)(C)C2=O)Nc2n[nH]cc21` [Compound 952562], the IC50 in test [1] (setting [7]) was above 5000 nM; in test [2] (setting [8]), 1000 to 5000 nM.
The like results for `CCC1(c2cccc(-c3c(C)nn(C)c3C)c2)C2=C(CC(C)(C)CC2=O)Nc2n[nH]cc21` (stereo not shown) [Compound 883851] were, in that order, at most 100 nM and at most 100 nM.
Regarding `CCC1(c2cccc(-c3cn[nH]c3)c2)C2=C(CC(C)(C)CC2=O)Nc2n[nH]c(C)c21` (stereo not shown) [Compound 883994], the IC50 in test [1] (setting [7]) and in test [2] (setting [8]) was at most 100 nM throughout.
Take `COc1cccc(S(=O)(=O)N2CC3(C2)C2=C(CC(C)(C)CC2=O)Nc2n[nH]cc23)c1` [Compound 918276]: the IC50 in test [1] (setting [3]) and in test [2] (setting [4]) was at most 100 nM each time.
`CC[C@@]1(c2cccc(-c3cnn(C)c3)c2)C2=C(CC(C)(C)NC2=O)Nc2n[nH]c(C(F)F)c21` [Compound 949919]: the IC50 in test [1] (setting [7]) is at most 100 nM; in test [1] (setting [9]), 100 to 1000 nM; in test [2] (setting [8]), at most 100 nM; in test [2] (setting [10]), at most 100 nM.
With `CC1(C)CC(=O)C2=C(C1)Nc1n[nH]cc1C21COC2(CN(C(=O)C3CCC3)C2)C1` (stereo not shown) [Compound 947288], the IC50 in test [1] (setting [11]) was at most 100 nM; in test [1] (setting [9]), 100 to 1000 nM; in test [2] (setting [12]), at most 100 nM; in test [2] (setting [10]), 100 to 1000 nM.
On to `C[C@@H]1CCC[C@]2(C1)C1=C(CC(C)(C)CC1=O)Nc1n[nH]cc12` [Compound 874532], for which the IC50 in test [1] (setting [3]) and in test [2] (setting [4]) was at most 100 nM throughout.
As to `CC(C)(C)Cc1[nH]nc2c1[C@@](C)(c1cccc(S(=O)(=O)CC3CC3)c1)C1=C(CC(C)(C)NC1=O)N2` [Compound 108006], the IC50 in test [1] (setting [9]) and in test [2] (setting [10]) was above 5000 nM each time.
Turning to `Cc1[nH]nc2c1C1(CC3(CCC3)C1)C1=C(CC(C)(C)CC1=O)N2` [Compound 877295], the IC50 in test [1] (setting [11]) and in test [2] (setting [12]) was above 5000 nM each time.
In the case of `CCC1(c2cccc(-c3cc(C)nn3C)c2)C2=C(CC(C)(C)NC2=O)Nc2[nH]ncc21` (stereo not shown) [Compound 943371], the IC50 is 1000 to 5000 nM in test [1] (setting [11]) and at most 100 nM in test [2] (setting [12]).
Consider `CCC1(c2cccc(-c3ccncc3CO)c2)C2=C(CC(C)(C)CC2=O)Nc2n[nH]cc21` (stereo not shown) [Compound 943539], for which the IC50 in test [1] (setting [3]) and in test [2] (setting [4]) was at most 100 nM throughout.
On to `CC[C@@]1(c2cccc(-c3cn(C)nc3C)c2)C2=C(CC(C)(C)CC2=O)Nc2n[nH]cc21` [Compound 945545], for which the IC50 was above 5000 nM in test [1] (setting [3]) and 1000 to 5000 nM in test [2] (setting [4]).
Consider `CC[C@]1(c2cccc(-c3cnn4c3OCCC4)c2)C2=C(CC(C)(C)NC2=O)Nc2n[nH]cc21` [Compound 952019], for which the IC50 is 100 to 1000 nM in test [1] (setting [7]) and at most 100 nM in test [2] (setting [8]).
Regarding `CC[C@]1(c2cccc(-c3c(C)nn(C)c3C)c2)C2=C(CC(C)(C)CC2=O)Nc2n[nH]c(C)c21` [Compound 913043], the IC50 was at most 100 nM in test [1] (setting [7]), 100 to 1000 nM in test [1] (setting [9]), at most 100 nM in test [2] (setting [8]) and at most 100 nM in test [2] (setting [10]).
Consider `CCC1(c2cccc(C(F)(F)F)c2)C2=C(CCN(c3ccccn3)C2=O)Nc2n[nH]cc21` (stereo not shown) [Compound 949310], for which the IC50 is 100 to 1000 nM in test [1] (setting [7]), above 5000 nM in test [1] (setting [9]), at most 100 nM in test [2] (setting [8]) and 100 to 1000 nM in test [2] (setting [10]).
In the case of `CC[C@@]1(c2cccc(-c3cnn(CCN4CCCC4)c3)c2)C2=C(CC(C)(C)NC2=O)Nc2n[nH]cc21` [Compound 949510], the IC50 in test [1] (setting [7]) and in test [2] (setting [8]) was above 5000 nM in each case.
Take `CC[C@@]1(c2cccc(-c3ccncc3OC3CC3)c2)C2=C(CC(C)(C)NC2=O)Nc2n[nH]cc21` [Compound 948643]: the IC50 in test [1] (setting [5]) and in test [2] (setting [6]) was above 5000 nM throughout.
Regarding `CCN(C(C)=O)c1cccc(C2(CC)C3=C(CC(C)(C)CC3=O)Nc3n[nH]cc32)c1` (stereo not shown) [Compound 909215], the IC50 was 1000 to 5000 nM in test [1] (setting [7]) and 100 to 1000 nM in test [2] (setting [8]).
In the case of `O=C1C2=C(Nc3n[nH]cc3C23CCOCC3)C2CCC1C2` (stereo not shown) [Compound 901464], the IC50 in test [1] (setting [3]) and in test [2] (setting [4]) was 100 to 1000 nM throughout.
As to `CCc1cc(-c2cccc([C@]3(CC)C4=C(CC(C)(C)NC4=O)Nc4n[nH]cc43)c2)ccn1` [Compound 948360], the IC50 in test [1] (setting [5]) was above 5000 nM; in test [2] (setting [6]), 1000 to 5000 nM.
On to `CC1(C)CC(=O)C2=C(C1)Nc1n[nH]cc1C21CN(C2CCOCC2)C1` [Compound 932651], for which the IC50 in test [1] (setting [7]) and in test [2] (setting [8]) was above 5000 nM each time.
For the molecule `CCC1(c2cccc(-c3ccnc4ccccc34)c2)C2=C(CC(C)(C)CC2=O)Nc2n[nH]cc21` (stereo not shown) [Compound 932631], the IC50 in test [1] (setting [7]) and in test [2] (setting [8]) was at most 100 nM in each case.
In the case of `CC1(C)CC(=O)C2=C(C1)Nc1n[nH]cc1C21CCC(n2cnnc2)CC1` (stereo not shown) [Compound 943894], the IC50 in test [1] (setting [3]) was 100 to 1000 nM; in test [2] (setting [4]) it was at most 100 nM.
On to `CC[C@]1(c2cccc(-c3ccnn3C)c2)C2=C(CC(C)(C)NC2=O)Nc2n[nH]cc21` [Compound 927390], for which the IC50 was above 5000 nM in test [1] (setting [11]) and 100 to 1000 nM in test [2] (setting [12]).
As to `CCC1(c2cccc(-c3ncnn3C)c2)C2=C(CC(C)(C)CC2=O)Nc2n[nH]cc21` (stereo not shown) [Compound 943532], the results for the IC50 in test [1] (setting [3]) and in test [2] (setting [4]) were 100 to 1000 nM and at most 100 nM, respectively.
For `CCC1(c2cccc(-c3cn[nH]c3)c2)C2=C(CC(C)(C)CC2=O)Nc2n[nH]c(C)c21` (stereo not shown) [Compound 913025], the IC50 was at most 100 nM in test [1] (setting [7]), 100 to 1000 nM in test [1] (setting [9]), at most 100 nM in test [2] (setting [8]) and at most 100 nM in test [2] (setting [10]).
Take `COc1ncccc1S(=O)(=O)N1CCC2(CC1)C1=C(CC(C)(C)CC1=O)Nc1n[nH]cc12` [Compound 947260]: the IC50 in test [1] (setting [11]) is at most 100 nM; in test [1] (GSK3-B (TR-FRET 1 mM ATP), GMean, IC50, 1 mM ATP, geometric mean), 100 to 1000 nM; in test [2] (setting [12]) it was at most 100 nM; in test [2] (GSK3-A (TR-FRET 1 mM ATP), GMean, IC50, 1 mM ATP, geometric mean), at most 100 nM.
`CCC1(c2cccc(Br)c2)C2=C(CC(C)CC2=O)Nc2n[nH]c(C(F)(F)F)c21` (stereo not shown) [Compound 828849]: the IC50 in test [1] (setting [5]) and in test [2] (setting [6]) was 100 to 1000 nM throughout.
Take `CCC1(c2cccc(C(F)(F)F)c2)C2=C(CCN(c3cnc(OC)nc3)C2=O)Nc2n[nH]c(C)c21` (stereo not shown) [Compound 949126]: the figures for the IC50 in test [1] (setting [5]) and in test [2] (setting [6]) were 100 to 1000 nM and at most 100 nM, respectively.
Turning to `CCC1(c2cccc(-c3c(C)cnn3C)c2)C2=C(CC(C)(C)CC2=O)Nc2n[nH]cc21` (stereo not shown) [Compound 947491], the IC50 in test [1] (setting [3]) and in test [2] (setting [4]) was at most 100 nM in each case.
